Structures can show the parent of a compound that is named as a salt. Where two headings read alike, the source gives them in different places.
Test system: hPSC-SCs
[1] = HTS viability of hPSC-SCs in the presence of 30 mM glucose, Prestwick library, Table S4

## C=C[C@]12CN(C)[C@@H]3[C@H]4CO[C@H](C[C@H]41)[C@]1(C(=O)Nc4ccccc41)[C@@H]32 [Gelsemine]
  z.score.t: 1.601

## Cc1cccc(Nc2ccccc2C(=O)O)c1C [Mefenamic acid]
[1]
  z.score.t: 1.751

## NC[C@H]1CC[C@H](C(=O)O)CC1 [Tranexamic acid]
[1]
  z.score.t: 1.088

## CCc1nc(N)nc(N)c1-c1ccc(Cl)cc1 [Pyrimethamine]
[1]
  z.score.t: 0.5856

## CC(C)(Sc1cc(C(C)(C)C)c(O)c(C(C)(C)C)c1)Sc1cc(C(C)(C)C)c(O)c(C(C)(C)C)c1 [Probucol]
[1]
  z.score.t: 0.1344

## CCCC(=O)Nc1ncnc2c1ncn2[C@@H]1O[C@@H]2COP(=O)(O)O[C@H]2[C@H]1OC(=O)CCC [Bucladesine sodium salt]
[1]
  z.score.t: 0.7727

## CC(O)Cn1cnc2c1c(=O)n(C)c(=O)n2C (centres unmarked) [Proxyphylline]
[1]
  z.score.t: −0.3023

## CC(=O)NC1CCSC1=O (racemic) [N-Acetyl-DL-homocysteine Thiolactone]
  z.score.t: 0.0116

## CCn1cc(C(=O)O)c(=O)c2cnc(N3CCCC3)nc21 [Piromidic acid]
[1]
  z.score.t: 0.453

## Ketanserin tartrate hydrate
[1]
  z.score.t: −1.137

## Cc1[nH]c(=O)c(C#N)cc1-c1ccncc1 [Milrinone]
[1]
  z.score.t: 0.3236

## COc1ccc(CN2CCNCC2)c(OC)c1OC [Trimetazidine dihydrochloride]
[1]
  z.score.t: 0.2189

## CCOc1ccc(Cc2nccc3cc(OCC)c(OCC)cc23)cc1OCC [Ethaverine hydrochloride]
[1]
  z.score.t: 0.453

## C[C@H]1C[C@H]2[C@@H]3CCC4=CC(=O)C=C[C@]4(C)[C@@]3(F)[C@@H](O)C[C@]2(C)[C@@]1(O)C(=O)CO [Betamethasone]
[1]
  z.score.t: 0.8711

## CN1C[C@H](CO)C=C2c3cccc4[nH]cc(c34)C[C@H]21 [Lysergol]
  z.score.t: 0.1979

## CC(C)(C(=O)O)c1ccc(C(O)CCCN2CCC(C(O)(c3ccccc3)c3ccccc3)CC2)cc1 (centres unmarked) [Fexofenadine HCl]
[1]
  z.score.t: −0.5086

## CN1[C@@H]2CC[C@H]1C[C@@H](OC(=O)C(CO)c1ccccc1)C2 (some centres unmarked) [Atropine sulfate monohydrate]
  z.score.t: −0.9654

## N[C@@H](Cc1cc(I)c(Oc2cc(I)c(O)c(I)c2)c(I)c1)C(=O)O [Thyroxine (L)]
  z.score.t: −0.8478

## c1cncc(C2=NCCC2)c1 [Myosmine]
  z.score.t: 0.9865

## Clc1ccc(CSC(Cn2ccnc2)c2ccc(Cl)cc2Cl)cc1 (centres unmarked) [Sulconazole nitrate]
[1]
  z.score.t: −0.2136

## CC(C)(C)NC[C@H](O)COc1ccccc1C1CCCC1 [Penbutolol sulfate]
[1]
  z.score.t: −0.9376

## C=C1C/C(=C/C)C(=O)O[C@@H]2CCN3CC=C(COC(=O)[C@]1(C)O)[C@H]23 [Seneciphylline]
  z.score.t: 0.767

## NNc1nncc2ccccc12 [Hydralazine hydrochloride]
[1]
  z.score.t: 1.472

## CCCC(=O)Nc1ccc(OCC(O)CNC(C)C)c(C(C)=O)c1 (centres unmarked) [Acebutolol hydrochloride]
[1]
  z.score.t: 0.3206

## C#C[C@]1(O)CC[C@H]2[C@@H]3CCC4=CC(=O)CC[C@@H]4[C@H]3CC[C@@]21CC [Norgestrel-(−)-D]
[1]
  z.score.t: 0.0116

## C[C@]12C=CC(=O)C=C1CC[C@@H]1[C@@H]2C(=O)C[C@@]2(C)[C@H]1CC[C@]2(O)C(=O)CO [Prednisone]
[1]
  z.score.t: −0.6093

## COc1cc(N)c(Cl)cc1C(=O)NC1CCN(Cc2ccccc2)CC1 [Clebopride maleate]
[1]
  z.score.t: 1.08

## CCN(CC)CCOC(=O)C(c1ccccc1)c1ccccc1 [Adiphenine hydrochloride]
[1]
  z.score.t: −0.765

## CCN1CCN(C(=O)N[C@@H](C(=O)N[C@@H]2C(=O)N3[C@@H]2SC(C)(C)[C@@H]3C(=O)O)c2ccccc2)C(=O)C1=O [Piperacillin sodium salt]
[1]
  z.score.t: 0.8465

## O=C(Nc1ccc([N+](=O)[O-])cc1Cl)c1cc(Cl)ccc1O [Niclosamide]
[1]
  z.score.t: −1.794

## C[C@]12CC[C@@H]3c4ccc(O)cc4CC[C@H]3[C@@H]1C[C@@H](O)[C@@H]2O [Estriol]
[1]
  z.score.t: 0.7296

## CC(NC(C)(C)C)C(=O)c1cccc(Cl)c1 (centres unmarked) [Bupropion hydrochloride]
[1]
  z.score.t: 2.803

## COC(=O)C1=CO[C@@H](C)[C@H]2CN3CCc4c([nH]c5ccccc45)[C@@H]3C[C@H]12.Cl [Ajmalicine hydrochloride]
[1]
  z.score.t: −0.6111

## Clc1ccc(COC(Cn2ccnc2)c2ccc(Cl)cc2Cl)c(Cl)c1 (centres unmarked) [Miconazole]
[1]
  z.score.t: −1.873

## COc1cccc2c1C(=O)c1c(O)c3c(c(O)c1C2=O)C[C@@](O)(C(=O)CO)C[C@@H]3O[C@H]1C[C@H](N)[C@H](O)[C@H](C)O1 [Doxorubicin hydrochloride]
[1]
  z.score.t: −1.209

## O.O.O=c1c(O)c(-c2ccc(O)c(O)c2)oc2cc(O)cc(O)c12 [Quercetine dihydrate]
  z.score.t: 1.371

## CCCNCC(O)COc1ccccc1C(=O)CCc1ccccc1 (centres unmarked) [Propafenone hydrochloride]
[1]
  z.score.t: 1.211

## OCC(O)CN1CCN(c2ccccc2)CC1 (racemic) [Dropropizine (R,S)]
[1]
  z.score.t: 0.7162

## c1ccc2c(c1)OCC(C1=NCCN1)O2 (centres unmarked) [Idazoxan hydrochloride]
[1]
  z.score.t: −0.03362

## CN1CCN(CCCN2c3ccccc3Sc3ccc(C(F)(F)F)cc32)CC1 [Trifluoperazine dihydrochloride]
[1]
  z.score.t: −1.866

## CC(=O)O[C@H]1C[C@@H]2CC[C@@H]3[C@H](CC[C@@]4(C)[C@H]3C[C@H]([N+]3(C)CCCCC3)[C@@H]4OC(C)=O)[C@@]2(C)C[C@@H]1[N+]1(C)CCCCC1 [Pancuronium bromide]
[1]
  z.score.t: 0.1543

## Nc1ncnc2c1ncn2[C@@H]1O[C@H](CO)[C@@H](O)[C@@H]1O [Vidarabine]
[1]
  z.score.t: 0.1019

## C[C@@]12C(=O)OC(=O)[C@]1(C)[C@H]1CC[C@@H]2O1 [Cantharidin]
  z.score.t: −2.175

## Cn1c([N+](=O)[O-])cnc1COC(N)=O [Ronidazole]
[1]
  z.score.t: −0.5875

## CN(C)CCCN1c2ccccc2CCc2ccccc21 [Imipramine hydrochloride]
[1]
  z.score.t: −0.7013

## O=C(O)CCCc1ccc(N(CCCl)CCCl)cc1 [Chlorambucil]
  z.score.t: −1.263

## COc1ccc(Cc2nccc3cc(OC)c(OC)cc23)cc1OC [Papaverine hydrochloride]
[1]
  z.score.t: 0.1556

## CCCCNc1cc(C(=O)O)cc(S(N)(=O)=O)c1Oc1ccccc1 [Bumetanide]
[1]
  z.score.t: 1.181

## Dihydroergotoxine mesylate
[1]
  z.score.t: 0.9377

## CNCCC=C1c2ccccc2C=Cc2ccccc21 [Norcyclobenzaprine]
[1]
  z.score.t: 0.465

## NS(=O)(=O)c1cc2c(cc1Cl)N=C(CSCc1ccccc1)NS2(=O)=O [Benzthiazide]
[1]
  z.score.t: 0.3022

## C[C@]12CC[C@@H]3c4ccc(O)cc4CC[C@H]3[C@@H]1CC[C@@H]2O [Estradiol-17 beta]
[1]
  z.score.t: −0.7953

## CCNC1(c2cccs2)CCCCC1=O.Cl (centres unmarked) [Tiletamine hydrochloride]
  z.score.t: 1.958

## C[n+]1cccc(C(=O)[O-])c1 [Trigonelline]
[1]
  z.score.t: 0.9213

## CCCOc1cc(N)ccc1C(=O)OCCN(CC)CC [Propoxycaine hydrochloride]
[1]
  z.score.t: −0.8229

## C[C@H]1[C@H](C)CC[C@]2(C(=O)O)CC[C@]3(C)C(=CC[C@@H]4[C@@]5(C)CC[C@H](O)C(C)(C)[C@@H]5CC[C@]43C)[C@H]12 [Ursolic acid]
[1]
  z.score.t: −0.765

## CCOC(=O)c1cncn1[C@H](C)c1ccccc1 [Etomidate]
  z.score.t: −0.1902

## CN(C)CCCOc1nn(Cc2ccccc2)c2ccccc12 [Benzydamine hydrochloride]
[1]
  z.score.t: −1.272

## CCN(CC)C(=O)c1ccc(O)c(OC)c1 [Ethamivan]
[1]
  z.score.t: 1.211

## CCNCC(O)c1cccc(O)c1 (centres unmarked) [Etilefrine hydrochloride]
[1]
  z.score.t: −0.4549

## CN1CCc2cccc3c2[C@H]1Cc1ccc(O)c(O)c1-3.CN1CCc2cccc3c2[C@H]1Cc1ccc(O)c(O)c1-3.Cl.Cl.O
  z.score.t: −1.904

## C/C=C(/C(=C/C)c1ccc(O)cc1)c1ccc(O)cc1 [Dienestrol]
[1]
  z.score.t: −1.123

## C[C@]12CC[C@H]3C(=CCc4cc(O)ccc43)[C@@H]1CCC2=O [Equilin]
[1]
  z.score.t: 0.9352

## CCN1C(=O)NC(c2ccccc2)C1=O (centres unmarked) [Ethotoin]
[1]
  z.score.t: −0.6988

## CSc1ccc2c(c1)C(N1CCN(C)CC1)Cc1ccccc1S2.O=C(O)/C=C\C(=O)O (centres unmarked) [Methiothepin maleate]
[1]
  z.score.t: −0.8821

## Cotinine (−)
  z.score.t: −0.139

## CC(C)(Oc1ccc(CCNC(=O)c2ccc(Cl)cc2)cc1)C(=O)O [Bezafibrate]
[1]
  z.score.t: 1.266

## C[C@H]1O[C@@H](O[C@H]2[C@@H](O)C[C@H](O[C@H]3[C@@H](O)C[C@H](O[C@H]4CC[C@@]5(C)[C@H](CC[C@@H]6[C@@H]5C[C@@H](O)[C@]5(C)[C@@H](C7=CC(=O)OC7)CC[C@]65O)C4)O[C@@H]3C)O[C@@H]2C)C[C@H](O)[C@@H]1O [Digoxin]
  z.score.t: −2.04

## CNCCCN1c2ccccc2CCc2ccccc21 [Desipramine hydrochloride]
[1]
  z.score.t: −1.014

## CN(C)CCC=C1c2ccccc2C=Cc2ccccc21 [Cyclobenzaprine hydrochloride]
[1]
  z.score.t: −0.1641

## CC1=C(C(=O)O)N2C(=O)[C@@H](NC(=O)[C@H](N)c3ccc(O)cc3)[C@H]2SC1 [Cefadroxil]
[1]
  z.score.t: 0.5046

## NC(=O)c1cnccn1 [Pyrazinamide]
[1]
  z.score.t: 1.73

## CC(=O)O[C@H]1C[C@@]2(C)[C@@H](C[C@@H](O)[C@H]3[C@@]4(C)CC[C@@H](O)[C@@H](C)[C@@H]4CC[C@@]32C)/C1=C(\CCC=C(C)C)C(=O)O [Fusidic acid sodium salt]
[1]
  z.score.t: 0.6203

## C=CCOc1ccccc1OCC(O)CNC(C)C (centres unmarked) [Oxprenolol hydrochloride]
[1]
  z.score.t: −1.046

## CCCCC(CC)CN1CN(CC(CC)CCCC)CC(C)(N)C1 (centres unmarked) [Hexetidine]
[1]
  z.score.t: −1.372

## Oc1cc(O)c2c(c1)O[C@H](c1ccc(O)c(O)c1)[C@H](O)C2 [Epicatechin-(−)]
[1]
  z.score.t: −0.411

## CC(C)[C@@]1(NC(=O)[C@@H]2C[C@@H]3c4cccc5[nH]cc(c45)C[C@H]3N(C)C2)O[C@@]2(O)[C@@H]3CCCN3C(=O)[C@H](Cc3ccccc3)N2C1=O [Dihydroergocristine mesylate]
[1]
  z.score.t: −0.3319

— US20260053861A1, “CELL COMPOSITIONS AND METHODS OF USING THE SAME” (THE REGENTS OF THE UNIVERSITY OF CALIFORNIA, priority 2022, published 2026)
